Among the data in ChEMBL document CHEMBL1132351, “Synthesis, in vitro pharmacology, and molecular modeling of very potent tacrine-huperzine A hybrids as acetylcholinesterase inhibitors of potential interest for the treatment of Alzheimer's disease” (J Med Chem, 1999) are IC50 and AI50 values, retold here.

One assay addresses Cholinesterase (Homo sapiens, UniProt P06276).
Assay [1] can be described thus: Drug concentration that reaches 50% of antagonism index (AI); No reversion at 10 uM concentration. It counts as functional.
A short description of assay [2]: Drug concentration that reaches 50% of antagonism index (AI); No reversion at 10 uM concentration. In kind it is functional.
A further assay addresses T1, Acetylcholinesterase (Bos taurus, UniProt P23795).
T1 sequence (P23795 whole entry): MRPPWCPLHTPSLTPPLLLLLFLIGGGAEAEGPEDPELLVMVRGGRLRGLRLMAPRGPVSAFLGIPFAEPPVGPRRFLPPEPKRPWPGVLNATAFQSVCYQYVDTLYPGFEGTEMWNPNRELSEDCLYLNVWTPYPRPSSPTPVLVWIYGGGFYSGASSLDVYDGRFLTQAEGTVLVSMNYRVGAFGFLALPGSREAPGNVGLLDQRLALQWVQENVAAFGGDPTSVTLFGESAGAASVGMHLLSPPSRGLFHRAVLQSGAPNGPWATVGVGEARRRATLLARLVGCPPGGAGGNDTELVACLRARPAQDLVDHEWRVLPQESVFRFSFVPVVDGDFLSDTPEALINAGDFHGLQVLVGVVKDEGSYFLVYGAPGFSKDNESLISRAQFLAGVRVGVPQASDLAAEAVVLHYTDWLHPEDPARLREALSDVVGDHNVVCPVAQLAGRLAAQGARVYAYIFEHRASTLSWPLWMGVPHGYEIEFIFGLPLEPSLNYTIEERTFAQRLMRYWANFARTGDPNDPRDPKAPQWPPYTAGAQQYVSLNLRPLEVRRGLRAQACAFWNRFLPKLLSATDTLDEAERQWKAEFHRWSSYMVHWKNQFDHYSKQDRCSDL

Several values for one entry are separate records, joined by “and”; a condition that tells them apart may be missing. Equal entries are not always repeated.

Sequence of Cholinesterase (P06276 whole entry): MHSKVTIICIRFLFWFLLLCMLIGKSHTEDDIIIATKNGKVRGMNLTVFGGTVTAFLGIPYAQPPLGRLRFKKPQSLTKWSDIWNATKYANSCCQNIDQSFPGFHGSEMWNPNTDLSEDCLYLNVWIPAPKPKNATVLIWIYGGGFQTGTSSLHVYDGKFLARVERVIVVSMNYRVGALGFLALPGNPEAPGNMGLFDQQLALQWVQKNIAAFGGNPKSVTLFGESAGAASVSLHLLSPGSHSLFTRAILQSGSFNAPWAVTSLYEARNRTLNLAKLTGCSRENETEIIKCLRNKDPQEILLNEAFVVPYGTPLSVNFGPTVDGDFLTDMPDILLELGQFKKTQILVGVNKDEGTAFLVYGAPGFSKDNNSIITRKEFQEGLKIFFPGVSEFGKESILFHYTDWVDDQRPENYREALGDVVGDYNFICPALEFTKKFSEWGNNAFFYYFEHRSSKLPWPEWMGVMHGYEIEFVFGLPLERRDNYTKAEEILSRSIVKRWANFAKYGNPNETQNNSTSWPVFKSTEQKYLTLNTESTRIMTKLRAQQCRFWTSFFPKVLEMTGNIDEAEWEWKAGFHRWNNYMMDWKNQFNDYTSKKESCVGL
Description for Acetylcholinesterase: Inhibition of acetylcholinesterase (AChE)activity in bovine erythrocytes

A word on the IC50: it is the concentration that inhibits the measured activity by half. Low readings indicate greater potency, high ones weaker potency. Take `CCC1=CC2Cc3nc4cc(C)ccc4c(N)c3C(C1)C2` (centres undefined) [listing 1 of 2 here]: the IC50 on Cholinesterase is 0.115 µM and 0.347 µM. Take `CCC1=CC2Cc3nc4cc(C)ccc4c(N)c3C(C1)C2` (centres undefined) [listing 2 of 2 here]: in assay [1], the AI50 result was “No reversion”. Consider `Nc1c2c(nc3ccccc13)CC1C=C(c3ccccc3)CC2C1` (racemic), for which, in assay [2], the AI50 result was “No reversion”. Inhibition against Acetylcholinesterase was half-maximal at 0.126 µM (IC50).

Regarding `CC1=CC2Cc3nc4cccc(F)c4c(N)c3C(C1)C2` (racemic), the results for the concentration for half-maximal inhibition (IC50) on Cholinesterase and at Acetylcholinesterase were 0.543 µM and 0.0314 µM, respectively. With `CC1=CC2Cc3nc4cc(C)ccc4c(N)c3C(C1)C2` (racemic), on Cholinesterase, the IC50 is 0.449 µM. `CCC1=CC2Cc3nc4cccc(C)c4c(N)c3C(C1)C2` (racemic): the half-inhibitory concentration (IC50) at Cholinesterase is 0.512 µM; against Acetylcholinesterase, 0.0298 µM. As for `CC1=CC2Cc3nc4ccccc4c(N)c3C(C1)C2` (racemic), the 50% inhibitory concentration (IC50) is 0.126 µM against Cholinesterase and 0.065 µM against Acetylcholinesterase. Consider `CCC1=CC2Cc3nc4cc(C)ccc4c(N)c3C(C1)C2` (racemic), for which the 50% inhibitory concentration (IC50) came to 0.208 µM at Cholinesterase and 0.012 µM against Acetylcholinesterase. `CC(C)C1=CC2Cc3nc4ccccc4c(N)c3C(C1)C2` (racemic): 0.103 µM corresponded to half-maximal inhibition at Acetylcholinesterase (IC50). In turn, `CC(C)(C)C1=CC2Cc3nc4ccccc4c(N)c3C(C1)C2` (racemic) registered an IC50 against Acetylcholinesterase of 0.267 µM. With `C=CCC1=CC2Cc3nc4ccccc4c(N)c3C(C1)C2` (racemic), the AI50 result in assay [2] is “No reversion at 10 uM concentration”. This compound registered an IC50 against Acetylcholinesterase of 0.15 µM.

On to `CCC1=CC2Cc3nc4ccccc4c(N)c3C(C1)C2` (racemic), for which the results for the IC50 against Cholinesterase and against Acetylcholinesterase were 0.0793 µM and 0.0385 µM, respectively. For `CC1=C[C@@H]2Cc3nc4cc(F)ccc4c(N)c3[C@H](C1)C2` (racemic), in that order: 0.197 µM and 0.0085 µM. For `CC1=CC2Cc3nc4ccccc4c(N)c3C(C1)C2` (single isomer, unassigned; (+)), in that order: 0.316 µM and 0.329 µM.

Turning to `CCC1=CC2Cc3nc4ccccc4c(N)c3C(C1)C2` (single isomer, unassigned; (+)), the 50% inhibitory concentration (IC50) against Cholinesterase amounted to 0.109 µM; against Acetylcholinesterase it was 0.888 µM. The compound `CC1=CC2Cc3nc4ccccc4c(N)c3C(C1)C2` (single isomer, unassigned; (-)) yielded an IC50 at Cholinesterase of 0.089 µM. Take `CCC1=CC2Cc3nc4ccccc4c(N)c3C(C1)C2` (single isomer, unassigned; (-)): the IC50 amounted to 0.0633 µM against Cholinesterase and 0.0274 µM against Acetylcholinesterase.

As to `C/C=C1\[C@H]2C=C(C)C[C@]1(N)c1ccc(=O)[nH]c1C2` [HUPERZINE A], the IC50 at Cholinesterase is above 100 µM.
